Legend:
[1] = molecular target: T1, c-Met receptor tyrosine kinase, GST-c-Met(969-1390) (Homo sapiens, UniProt P08581); assay: EPK c-Met profiling assay (LanthaScreen TR-FRET kinase assay); format: biochemical; conditions: 2 μM ATP, 0.3 nM enzyme, 60 minutes at room temperature
T1 construct: made in house
Summary of the method: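 Recombinant GST-c-Met(969-1390) cytoplasmic domain, 0.3 nM, phosphorylating 50 nM Fluorescein-PolyEAY with 2 μM ATP, 10 mM MgCl2, 3 mM MnCl2, 60 min at room temperature. EDTA-stopped; phosphoproduct detected by TR-FRET with Tb-PY20 antibody, end-point read. Final compound 0.003-10 μM over 8 concentrations.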

[2] = molecular target: T2, c-Met (Homo sapiens, UniProt P08581); assay: GTL-16 c-Met autophosphorylation measured by AlphaScreen detection; format: cell-based; conditions: GTL-16 cells, 1 h incubation, AlphaScreen p-c-Met; read-out: GTL-16 IC50 c-Met phosphorylation
T2 construct: adapted to measure the phosphorylation of endogenous cellular proteins in cell lysates; endogenous in cells; host or cells: GTL-16
Summary of the method: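 GTL-16 MET-amplified gastric cancer cells, serum-free DMEM with 0.1% BSA, exposed to 8-point compound dilutions for 1 h at 37° C (0.11% DMSO final). Lysates probed for phospho-c-Met by AlphaScreen using anti-c-Met antibody, biotinylated PY20 phosphotyrosine antibody, Protein A acceptor and streptavidin donor beads.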

T1 sequence (P08581 969-1390): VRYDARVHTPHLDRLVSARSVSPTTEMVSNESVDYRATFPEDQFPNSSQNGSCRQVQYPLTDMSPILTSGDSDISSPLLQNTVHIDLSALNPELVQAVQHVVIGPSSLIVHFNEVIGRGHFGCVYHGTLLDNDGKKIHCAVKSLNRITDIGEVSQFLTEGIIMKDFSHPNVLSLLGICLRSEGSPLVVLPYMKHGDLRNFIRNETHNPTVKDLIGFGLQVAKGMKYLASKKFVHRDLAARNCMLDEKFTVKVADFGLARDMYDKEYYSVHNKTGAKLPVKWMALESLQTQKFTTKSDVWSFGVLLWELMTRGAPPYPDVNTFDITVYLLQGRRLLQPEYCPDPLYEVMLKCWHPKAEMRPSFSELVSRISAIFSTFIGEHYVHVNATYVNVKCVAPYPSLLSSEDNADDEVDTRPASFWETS
T2 sequence (P08581 25-1390): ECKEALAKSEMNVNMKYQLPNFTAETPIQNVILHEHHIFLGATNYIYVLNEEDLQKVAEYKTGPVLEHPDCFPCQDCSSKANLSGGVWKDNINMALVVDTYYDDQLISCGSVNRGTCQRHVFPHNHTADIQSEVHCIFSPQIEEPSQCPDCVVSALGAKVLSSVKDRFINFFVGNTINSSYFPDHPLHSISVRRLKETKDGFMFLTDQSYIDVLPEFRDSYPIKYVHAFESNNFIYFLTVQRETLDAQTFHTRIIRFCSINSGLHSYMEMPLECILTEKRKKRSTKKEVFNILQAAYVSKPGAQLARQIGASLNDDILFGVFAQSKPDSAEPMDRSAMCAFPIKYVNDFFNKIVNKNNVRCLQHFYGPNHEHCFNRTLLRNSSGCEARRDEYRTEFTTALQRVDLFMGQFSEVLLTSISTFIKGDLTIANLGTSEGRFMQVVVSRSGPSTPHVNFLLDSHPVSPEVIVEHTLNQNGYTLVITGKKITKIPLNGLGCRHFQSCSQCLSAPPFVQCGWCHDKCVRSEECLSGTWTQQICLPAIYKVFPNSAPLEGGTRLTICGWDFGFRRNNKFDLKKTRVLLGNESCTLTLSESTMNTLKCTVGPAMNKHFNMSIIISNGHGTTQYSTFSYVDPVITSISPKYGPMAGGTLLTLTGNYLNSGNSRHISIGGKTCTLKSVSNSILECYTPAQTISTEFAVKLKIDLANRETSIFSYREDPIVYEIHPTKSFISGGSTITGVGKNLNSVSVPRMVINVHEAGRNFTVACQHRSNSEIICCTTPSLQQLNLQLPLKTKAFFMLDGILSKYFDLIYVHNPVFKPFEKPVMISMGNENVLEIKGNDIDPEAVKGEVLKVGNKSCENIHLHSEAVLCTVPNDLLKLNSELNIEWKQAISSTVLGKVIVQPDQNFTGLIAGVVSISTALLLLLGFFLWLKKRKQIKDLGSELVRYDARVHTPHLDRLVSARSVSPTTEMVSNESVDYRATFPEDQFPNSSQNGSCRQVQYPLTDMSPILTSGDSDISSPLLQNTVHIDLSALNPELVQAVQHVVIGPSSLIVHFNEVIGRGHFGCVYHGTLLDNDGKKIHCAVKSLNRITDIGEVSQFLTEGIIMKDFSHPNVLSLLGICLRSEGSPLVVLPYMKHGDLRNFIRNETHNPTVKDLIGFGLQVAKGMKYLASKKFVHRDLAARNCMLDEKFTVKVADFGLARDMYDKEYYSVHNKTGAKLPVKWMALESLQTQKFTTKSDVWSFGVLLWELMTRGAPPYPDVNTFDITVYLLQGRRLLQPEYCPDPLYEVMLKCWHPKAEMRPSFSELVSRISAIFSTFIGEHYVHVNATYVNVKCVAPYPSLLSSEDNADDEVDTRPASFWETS

C[C@@H](c1c(F)cc2ncccc2c1F)c1cnc2ccc(N3CCNC(=O)C3)nn12 (single isomer, unassigned) [Example 5]
IC50 [1]: < 3 nM | IC50 [2]: < 3 nM

C[C@@H](c1c(F)cc2ncccc2c1F)c1cnc2ccc(N3CCN(C)C(=O)C3)nn12 [Example 2, 4-{3-[(S)-1-(5,7-Difluoro-quinolin-6-yl)-ethyl]-imidazo[1,2-b]pyridazin-6-yl}-1-methyl-piperazin-2-one]
IC50 [1]: < 3 nM | IC50 [2]: 2.7 nM

C[C@@H](c1c(F)cc2ncccc2c1F)c1cnc2ccc(N3CCNCC3)nn12 [Example 7, 5,7-Difluoro-6-[(S)-1-(6-piperazin-1-yl-imidazo[1,2-b]pyridazin-3-yl)-ethyl]-quinoline]
IC50 [1]: 4.1 nM | IC50 [2]: 2.1 nM

CC(=O)N1CCN(c2ccc3ncc([C@@H](C)c4c(F)cc5ncccc5c4F)n3n2)CC1 [Example 11, 1-(4-{3-[(S)-1-(5,7-Difluoro-quinolin-6-yl)-ethyl]-imidazo[1,2-b]pyridazin-6-yl}-piperazin-1-yl)ethanone]
IC50 [1]: 3.6 nM | IC50 [2]: 4.4 nM

C[C@@H](c1cc2cnn(C)c2cc1F)c1cnc2ccc(N3CCNC(=O)C3)nn12 [Example 28, 4-{3-[(S)-1-(6-Fluoro-1-methyl-1H-indazol-5-yl)-ethyl]-imidazo[1,2-b]pyridazin-6-yl}-piperazin-2-one]
IC50 [1]: 17 nM | IC50 [2]: 11 nM
